Values quoted from earlier work in patent US20160176819A1, “ASYMMETRICALLY CHARGED NIR FLUOROPHORES” (Washington University, priority 2014, published 2016).
Where “and” joins values, the source holds several entries; their conditions need not be identical. Equal entries are not always repeated.

Key:
[1] = reference value; cited from earlier work
[2] = ICG in DMSO, literature values; cited from earlier work

For CC1(C)C(/C=C/C=C/C=C/C=C2\N(CCCCS(=O)(=O)O)c3ccc4ccccc4c3C2(C)C)=[N+](CCCCS(=O)(=O)[O-])c2ccc3ccccc3c21 [ICG, indocyanine green], the “QY of the reference” value [1] is given as 23% and the “fluorescence quantum yield of the reference” value [2] is given as 0.12 and 0.22.
